Laboratory results published in patent US9580330B2, “Anhydrous, amorphous and porous magnesium carbonates and methods of production thereof” (DISRUPTIVE MATERIALS AB, priority 2012, dated 2017).

How the values were obtained:
[1] = Drug release measurement, USP-2 dissolution bath; assay type: physicochemical; conditions: phosphate buffer pH 6.8, 37° C., 50 rpm, 17.5 mg ibuprofen in 500 mL
Description: Drug Release Measurement: The release of ibuprofen was carried out in a USP-2 dissolution bath (Sotax AT7 Smart, Sotax AG, Switzerland) equipped with 1000 mL vessels (37° C., 50 rpm). Samples with a total drug content of 17.5 mg ibuprofen were placed in vessels containing 500 mL phosphate buffer (pH=6.8). […] Aliquots of 3 mL were withdrawn from each vessel at regular intervals for 125 min and the drug concentration in the liquid samples was analysed using UV/vis absorbance spectroscopy (1650PC, Shimadzu Corporation, Kyoto, Japan).

[2] = Thermal gravimetric analysis (TGA) of Example 28 samples; assay type: physicochemical; conditions: air flow, 3 K min^−1
Description: Thermal gravimetric analysis (TGA) was carried out on a Mettler Toledo, model TGA/SDTA851e, under an air flow in an inert alumina cup. The samples were heated from room temperature to 600° C. with a heating rate of 3 K min^−1.

CC(C)Cc1ccc(C(C)C(=O)O)cc1 (centres unmarked) [free ibuprofen, ibuprofen]
time until about 50% of the ibuprofen is dissolved [1]: about 30 minutes | decomposition temperature of ibuprofen [2]: about 200 °C
